Columns and labels:
Assay type in all cases: in vivo
[1] = test system: Inbred Seed Corn; experiment: Seed size and shape evaluation of seed from treated field plots (estimated units, bag weight, proportions); conditions: for % RDS: rounds as share of all units; for ABOVE 25: seed above size 25; for BELOW 17: seed below size 17; for EST. UNITS, total: sum of the four size/shape categories
Description: In an actively growing seed corn field scheduled to be treated with Drexel Defol® 750, four test plots were evaluated. Two plots were treated with Drexel Defol® 5, a sodium chlorate formulation containing 5 pounds of active sodium chlorate per gallon, and with varying amounts of cyanate anions. Sodium cyanate salt was used as the source of cyanate for its compatibility with sodium chlorate. The results of these two treatments were compared to an untreated check and a plot treated with Defol® 750, which contained 7.5 pounds of active sodium chlorate per gallon. The amount of active sodium chlorate applied in the three treated plots was equivalent.
• Crop: Inbred Seed Corn • Variety: A0036RMQKZ×HCL4011 • Plot Sizes: 5 acres for Plots 1-3; 7 acres for Plot 4 • Plot Location: Near Oxford, WI • Season/Year: Summer/2013 • Corn Stage: Full Dent • Application Equipment: Case Patriot Sprayer • Application Conditions: Temperature: 86° F. • Sky: Sunny • Wind: 4 mph • Application Diluent: Water • Application Volume: 20 gallons per acre • Number of full days between application and harvest: 24 days • Post Harvest Seed • Treatment: CruiserMaxx® Corn 250 Test Plot Treatments: • Plot 1—Untreated Check • Plot Size: 5 acres • Plot 2—Treatment A • Defol® 5: 4.8 quarts per acre • Sodium cyanate: 6.4 grams per acre • Water: 75.2 quarts per acre • Plot Size: 5 acres • Plot 3—Treatment B • Defol® 5: 4.8 quarts per acre • Sodium cyanate: 15.9 grams per acre • Water: 75.2 quarts per acre • Plot size: 5 acres • Plot 4—Defol® 750 Treatment Check • Defol® 750: 3.2 quarts per acre • Water: 76.8 quarts per acre • Plot size: 7 acres
Samples of corn seed from each of the four test plots were evaluated for seed size, shape, as well as germination under certain test conditions: warm germination, cold germination and saturated cold germination. Each of the four evaluated categories (i.e., 26/21 Round, 21/17 Round, 26/21 Flat, 21/17 Flat) constituted desirable and saleable seed size and shape. Evaluation was performed at Biodiagnostics, Inc., River Falls, WI. The results were as follows:
• Crop: Inbred Seed Corn • Variety: D2507VT3P • Plot Location: Jackson, WI • Season/Year: Summer/2014 • Corn Stage at Application: to Full Dent • Moisture at Application: 42% • Application Equipment: Case Patriot Sprayer • Application Conditions: Temperature: 88-90° F. • Sky: Clear • Wind: 2-3 mph • Application Diluent: Water • Application Volume: 20 gallons per acre • Number of full days between application and harvest: 8 days • Post Harvest Seed Treatment: CruiserMaxx® Corn 250 Test Plot Treatments: • Plot 1—Untreated Check • Plot Size: Balance of Field • Plot 2—Treatment A • Defol® 5: 4.8 quarts per acre • Sodium cyanate: 6.4 grams per acre • Water: 75.2 quarts per acre • Plot Size: 16 acres • Plot 3—Defol® 750 Treatment Check • Defol® 750: 3.2 quarts per acre • Water: 76.8 quarts per acre • Plot Size: 16 acres
Samples of corn seed from each of the three test plots were evaluated for desirable/saleable seed size and shape, as well as germination under certain test conditions: warm germination, cold germination and saturated cold germination. Each of the four evaluated categories (i.e., 24/21 Round, 21/17 Round, 24/21 Flat, 21/17 Flat) constituted desirable and saleable seed size and shape. The results were as follows: […]

[2] = test system: Inbred Seed Corn; experiment: Warm germination test of harvested seed; conditions: for WARM GERM, sum: sum of the four size/shape categories
From the text: (§1) Seed quality can be evaluated by germination tests, such as warm germination, cold germination, and saturated cold germination. These types of tests are commonly used to predict seed germination and emergence. Among these tests, the saturated cold germination test exposes the seeds to cold, wet, and oxygen deficient stress, and is thus considered probative of seed germination viability over a range of field conditions. […]
(§2) • Crop: Inbred Seed Corn • Variety: D2905VT3P • Plot Location: New Haven, WI • Season/Year: Summer/2014 • Corn Stage at Application: to Full Dent • Moisture at Application: 44% • Application Equipment: Case Patriot Sprayer • Application Conditions: Temperature: 88-90° F. • Sky: Clear • Wind: 2-3 mph • Application Diluent: Water • Application Volume: 20 gallons per acre • Number of full days between application and harvest: 10 days • Post Harvest Seed Treatment: CruiserMaxx® Corn 250 Test Plot Treatments: • Plot 1—Untreated Check • Plot Size: Balance of Field • Plot 2—Treatment A • Defol® 5: 4.8 quarts per acre • Sodium cyanate: 6.4 grams per acre • Water: 75.2 quarts per acre • Plot Size: 16 acres • Plot 3—Defol® 750 Treatment Check • Defol® 750: 3.2 quarts per acre • Water: 76.8 quarts per acre • Plot Size: 16 acres • Plot 4—Treatment B • Sodium cyanate: 6.4 grams per acre • Water: 80 quarts per acre • Plot Size: 16 acres
(§3) Samples of corn seed from each of the three test plots were evaluated for desirable/saleable seed size and shape, as well as germination under certain test conditions: warm germination, cold germination and saturated cold germination. Each of the four evaluated categories (i.e., 24/21 Round, 21/16 Round, 24/21 Flat, 21/16 Flat) constituted desirable and saleable seed size and shape. The results were as follows:
as §2, with “D3910VT2P” for “D2905VT3P”, “Springville,” for “New Haven,”, “Very early start of dent” for “to Full Dent”, “50-55%” for “44%”, “17” for “10”
(§4) Samples of corn seed from each of the three test plots were evaluated for desirable/saleable seed size and shape, as well as germination under certain test conditions: warm germination, cold germination and saturated cold germination. Each of the four evaluated categories (i.e., 25/20 Round, 20/16 Round, 25/20 Flat, 20/16 Flat) constituted desirable and saleable seed size and shape.

[3] = test system: Inbred Seed Corn; experiment: Cold germination test of harvested seed; conditions: for COLD GERM, sum: sum of the four size/shape categories
From the text: as §1, §2, §3
as §2, with “D3910VT2P” for “D2905VT3P”, “Springville,” for “New Haven,”, “Very early start of dent” for “to Full Dent”, “50-55%” for “44%”, “17” for “10”
as §4

[4] = test system: Inbred Seed Corn; experiment: Saturated cold (super cold) germination test of harvested seed; conditions: for SUPER COLD, sum: sum of the four size/shape categories
From the text: Seed quality can be evaluated by germination tests, such as warm germination, cold germination, and saturated cold germination. These types of tests are commonly used to predict seed germination and emergence. Among these tests, the saturated cold germination test exposes the seeds to cold, wet, and oxygen deficient stress, and is thus considered probative of seed germination viability over a range of field conditions.
The term “seed vigor” refers to a measure of the quality of a seed assemblage based on certain properties, such as percent germination, which can predict seed germination and emergence under a wide range of field conditions, particularly stress conditions. The methodology of the present disclosure can be followed to produce a seed assemblage that is characterized by enhanced seed vigor, as determined by seed vigor testing. […] One such technique is known as the saturated cold germination test. According to the Seed Vigor Testing Handbook by the Association of Official Seed Analysts (2009), the saturated cold germination test is the most stressful of various cold-test procedures for determining the vigor of a seed assemblage. In this test, the soil or planting medium is maintained at 100% water holding capacity for the duration of the test, which also subjects seeds to sub-optimal temperatures and soil-borne pathogens. These conditions evaluate seeds based on their response to three stress factors: imbibitional chilling injury, attack by soil-borne pathogens, and limited oxygen availability. These harsh conditions can allow testers to discriminate between seed assemblages differing in vigor, and thus the saturated cold germination test can act as a good indicator of seed quality for many crops. […]
as §2
Samples of corn seed from each of the three test plots were evaluated for desirable/saleable seed size and shape, as well as germination under certain test conditions: warm germination, cold germination and saturated cold germination. Each of the four evaluated categories (i.e., 24/21 Round, 21/16 Round, 24/21 Flat, 21/16 Flat) constituted desirable and saleable seed size and shape. The results were as follows: […]

[5] = Example 2 Hybrid 2 (D2905VT3P, 2014), seed size 21/16F
[6] = Example 2 Hybrid 2 (D2905VT3P, 2014), seed size 21/16R
[7] = Example 2 Hybrid 2 (D2905VT3P, 2014), seed size 24/21F
[8] = Example 2 Hybrid 2 (D2905VT3P, 2014), seed size 24/21R
[9] = Example 2 Hybrid 2, column headed GRAMS in the 8th table
[10] = Example 2 Hybrid 3 (D3910VT2P, 2014), seed size 20/16F
[11] = Example 2 Hybrid 3 (D3910VT2P, 2014), seed size 20/16R
[12] = Example 2 Hybrid 3 (D3910VT2P, 2014), seed size 25/20F
[13] = Example 2 Hybrid 3 (D3910VT2P, 2014), seed size 25/20R
[14] = Example 2 Hybrid 3, column headed GRAMS in the 12th table

## N#CO [Cyanate, Sodium cyanate]
[1]; [5]
  EST. BAG WT.: 40.5 lbs
  EST. UNITS: 198
[1]; [6]
  EST. BAG WT.: 45.7 lbs
  EST. UNITS: 392
[1]; [7]
  EST. BAG WT.: 51.6 lbs
  EST. UNITS: 180
[1]; [8]
  EST. BAG WT.: 60.5 lbs
  EST. UNITS: 253
[1]; Example 2 Hybrid 2, 21/16F units as share of 24/21F and 21/16F
  % SF OF ALL FL: 52.38%
[1]; Example 2 Hybrid 2, 21/16R units as share of 24/21R and 21/16R
  % SR OF ALL RDS: 60.78%
[1]; Example 2 Hybrid 2
  % RDS: 63.05%
  EST. UNITS, total: 1023
[1]; [9]
  ABOVE 25: 5
  BELOW 17: 21
[1]; Example 2 Hybrid 2 and Hybrid 3, compared to the Untreated Checks
  yields and proportions of seed at desirable and saleable sizes and shapes: higher yields and proportions
[1]; [10]
  EST. BAG WT.: 40.1 lbs
  EST. UNITS: 232
[1]; [11]
  EST. BAG WT.: 42.7 lbs
  EST. UNITS: 218
[1]; [12]
  EST. BAG WT.: 50.6 lbs
  EST. UNITS: 361
[1]; [13]
  EST. BAG WT.: 57 lbs
  EST. UNITS: 234
[1]; Example 2 Hybrid 3, 20/16F units as share of 25/20F and 20/16F
  % SF OF ALL FL: 39.12%
[1]; Example 2 Hybrid 3, 20/16R units as share of 25/20R and 20/16R
  % SR OF ALL RDS: 48.23%
[1]; Example 2 Hybrid 3
  % RDS: 43.25%
  EST. UNITS, total: 1045
[1]; [14]
  ABOVE 25: 4
  BELOW 17: 23
[1]; Examples 1 and 2, compared to the Untreated Check
  bag weight, in words: more desirable bag weights
[2]; [5]
  WARM GERM: 96%
[2]; [6]
  WARM GERM: 96%
[2]; [7]
  WARM GERM: 99%
[2]; [8]
  WARM GERM: 98%
[2]; Example 2 Hybrid 2
  WARM GERM, sum: 389%
[2]; [10]
  WARM GERM: 98%
[2]; [11]
  WARM GERM: 96%
[2]; [12]
  WARM GERM: 99%
[2]; [13]
  WARM GERM: 99%
[2]; Example 2 Hybrid 3
  WARM GERM, sum: 392%
[3]; [5]
  COLD GERM: 98%
[3]; [6]
  COLD GERM: 96%
[3]; [7]
  COLD GERM: 99%
[3]; [8]
  COLD GERM: 96%
[3]; Example 2 Hybrid 2
  COLD GERM, sum: 389%
[3]; [10]
  COLD GERM: 95%
[3]; [11]
  COLD GERM: 95%
[3]; [12]
  COLD GERM: 96%
[3]; [13]
  COLD GERM: 97%
[3]; Example 2 Hybrid 3
  COLD GERM, sum: 383%
[4]; Example 2, over the Untreated Checks, particularly Hybrid 3
  seed vigor based on the super cold germination percentage: increased seed vigor
[4]; [5]
  SUPER COLD: 95%
[4]; [6]
  SUPER COLD: 92%
[4]; [7]
  SUPER COLD: 97%
[4]; [8]
  SUPER COLD: 99%
[4]; Example 2 Hybrid 2
  SUPER COLD, sum: 383%
[4]; [10]
  SUPER COLD: 90%
[4]; [11]
  SUPER COLD: 92%
[4]; [12]
  SUPER COLD: 95%
[4]; [13]
  SUPER COLD: 95%
[4]; Example 2 Hybrid 3
  SUPER COLD, sum: 372%

— patent publication US12635686B2, “Compositions and methods for imposing seed quality” (priority 2014, dated 2026)
